Data as given in patent US20220242870A1, “HETEROCYCLE-FUSED PYRIMIDINE DERIVATIVE AND USE THEREOF” (VORONOI Inc., priority 2019, published 2022).

Experiments:
MV4-11 cells = experiment: AML cell proliferation inhibitory activity (CellTiter-Glo); assay type: cell-based; conditions: Homo sapiens, 72 hours
Method in brief: (§1)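 RS4;11 and MV4-11 cells in RPMI-1640 with 10% FBS, seeded 24 h before treatment, then exposed 72 h to 12 three-fold dilutions (0.3 nM–50 μM final). Viability by CellTiter-Glo luminescence relative to solvent control; GI50 from triplicate experiments.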

CDK6 cyclin D1 = target: T1, CDK6 cyclin D1 (Homo sapiens, UniProt Q00534); experiment: CDK6 enzyme inhibitory ability (Reaction Biology); assay type: biochemical; conditions: measured in Reaction Biology (USA)
T1 construct: purchased Reaction Biology (USA), contract assay
T1 sequence (Q00534 whole entry): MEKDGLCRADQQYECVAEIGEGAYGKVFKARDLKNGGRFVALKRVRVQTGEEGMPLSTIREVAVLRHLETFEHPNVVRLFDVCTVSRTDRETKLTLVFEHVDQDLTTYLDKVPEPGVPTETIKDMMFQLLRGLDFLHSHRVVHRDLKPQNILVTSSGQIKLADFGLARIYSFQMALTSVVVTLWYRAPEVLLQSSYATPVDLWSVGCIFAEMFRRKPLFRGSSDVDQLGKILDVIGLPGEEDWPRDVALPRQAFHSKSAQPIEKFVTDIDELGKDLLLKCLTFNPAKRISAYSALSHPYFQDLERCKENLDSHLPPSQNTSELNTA
T1 sequence (P24385 whole entry partner): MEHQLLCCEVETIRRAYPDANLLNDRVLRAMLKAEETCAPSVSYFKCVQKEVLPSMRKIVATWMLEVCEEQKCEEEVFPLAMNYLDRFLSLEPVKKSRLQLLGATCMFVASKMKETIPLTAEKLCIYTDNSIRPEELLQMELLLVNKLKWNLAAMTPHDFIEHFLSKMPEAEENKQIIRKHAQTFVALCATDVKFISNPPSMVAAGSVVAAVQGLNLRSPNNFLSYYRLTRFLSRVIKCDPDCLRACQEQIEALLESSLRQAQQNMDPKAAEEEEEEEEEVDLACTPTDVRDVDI
Method: (§2) In order to evaluate the CDK4 and CDK6 enzyme inhibitory activities of the example compounds according to the present invention, IC5O (nM) was measured for the CDK4 cyclin D1 and CDK6 cyclin D1 enzymes in Reaction Biology (USA), and the results were shown in Table 3 below.

human FLT3-ITD enzyme = target: T2, human FLT3-ITD enzyme (Homo sapiens, UniProt P36888); experiment: FLT3 enzyme inhibitory ability (ADP-Glo kinase assay); assay type: biochemical; conditions: human FLT3-ITD enzyme 10 ng, ATP 10 μM, 25° C. 1 hour
T2 sequence (P36888 1-993): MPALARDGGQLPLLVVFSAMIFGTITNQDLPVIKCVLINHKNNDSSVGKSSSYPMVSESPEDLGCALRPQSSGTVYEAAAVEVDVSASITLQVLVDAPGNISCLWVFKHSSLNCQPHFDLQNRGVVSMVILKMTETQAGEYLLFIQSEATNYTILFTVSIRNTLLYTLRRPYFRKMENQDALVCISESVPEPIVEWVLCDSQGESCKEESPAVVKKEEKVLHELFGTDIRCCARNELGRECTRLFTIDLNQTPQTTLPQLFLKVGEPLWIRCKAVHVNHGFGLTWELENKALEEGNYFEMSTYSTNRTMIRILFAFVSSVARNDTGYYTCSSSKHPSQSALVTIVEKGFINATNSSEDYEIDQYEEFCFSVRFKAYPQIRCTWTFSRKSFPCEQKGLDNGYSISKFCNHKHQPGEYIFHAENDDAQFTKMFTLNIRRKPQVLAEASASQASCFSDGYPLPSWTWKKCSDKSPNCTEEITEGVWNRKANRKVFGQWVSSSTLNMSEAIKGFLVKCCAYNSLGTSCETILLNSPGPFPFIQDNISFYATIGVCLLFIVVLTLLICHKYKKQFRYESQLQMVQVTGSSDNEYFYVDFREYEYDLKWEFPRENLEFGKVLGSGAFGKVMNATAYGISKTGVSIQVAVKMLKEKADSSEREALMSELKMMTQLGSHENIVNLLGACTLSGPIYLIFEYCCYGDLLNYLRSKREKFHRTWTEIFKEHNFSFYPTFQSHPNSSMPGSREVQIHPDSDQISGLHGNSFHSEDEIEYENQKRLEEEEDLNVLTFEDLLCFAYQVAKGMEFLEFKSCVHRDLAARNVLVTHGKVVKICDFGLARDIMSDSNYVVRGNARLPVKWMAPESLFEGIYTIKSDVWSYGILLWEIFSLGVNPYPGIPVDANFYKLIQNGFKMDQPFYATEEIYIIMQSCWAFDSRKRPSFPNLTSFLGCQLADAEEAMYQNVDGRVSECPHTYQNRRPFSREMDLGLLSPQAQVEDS
Method in brief: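 Purified human FLT3-ITD (10 ng) with 10 μM ATP and specific substrate in 40 mM Tris-HCl pH 7.4, 20 mM MgCl2, 0.5 mg/mL BSA, 50 μM DTT, 1 h at 25 °C. ADP formation read by ADP-Glo luminescence; IC50 (nM) versus solvent-treated control.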

CDK4-cyclinD1 = CDK4-cyclinD1 (Homo sapiens, UniProt P11802); experiment: CDK4 enzyme inhibitory ability (Reaction Biology); assay type: biochemical; set-up: purchased Reaction Biology (USA), contract assay; conditions: measured in Reaction Biology (USA)
CDK4-cyclinD1, sequence (P11802 whole entry): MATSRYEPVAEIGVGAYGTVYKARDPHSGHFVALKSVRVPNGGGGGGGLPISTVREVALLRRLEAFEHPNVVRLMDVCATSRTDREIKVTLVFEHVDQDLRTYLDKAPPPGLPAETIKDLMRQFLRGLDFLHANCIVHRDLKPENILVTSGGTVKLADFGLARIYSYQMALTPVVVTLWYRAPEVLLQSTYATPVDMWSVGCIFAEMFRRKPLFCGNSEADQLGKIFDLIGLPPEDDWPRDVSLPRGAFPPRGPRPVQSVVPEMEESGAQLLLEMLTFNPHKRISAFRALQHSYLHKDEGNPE
CDK4-cyclinD1, sequence (P24385 whole entry partner): as the sequence (P24385 whole entry partner) above
Method: as §2

MCF-7 cells = experiment: Breast cancer cell line proliferation inhibitory activity (CellTiter-Glo 2.0); assay type: cell-based; conditions: Homo sapiens, MCF7, 120 hours
Method in brief: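 MCF-7 cells exposed to a 12-point, 3-fold dilution series (final 0.00005–10 μM) for 120 h at 37 °C. Viability read by CellTiter-Glo 2.0 luminescence, expressed as percent of vehicle-treated cells. GI50 (nM) derived from the curves.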

human GST-HPK1 (1-346) = target: T3, human GST-HPK1 (1-346) (Homo sapiens, UniProt Q92918); experiment: HPK1 enzyme inhibitory ability (ADP-Glo kinase assay); assay type: biochemical; conditions: human GST-HPK1 3 ng, ATP 3 uM, 25° C. 2 hours
T3 construct: purified human GST-HPK1 (1-346, Signalchem) enzyme; purchased Signalchem
T3 sequence (Q92918 1-346): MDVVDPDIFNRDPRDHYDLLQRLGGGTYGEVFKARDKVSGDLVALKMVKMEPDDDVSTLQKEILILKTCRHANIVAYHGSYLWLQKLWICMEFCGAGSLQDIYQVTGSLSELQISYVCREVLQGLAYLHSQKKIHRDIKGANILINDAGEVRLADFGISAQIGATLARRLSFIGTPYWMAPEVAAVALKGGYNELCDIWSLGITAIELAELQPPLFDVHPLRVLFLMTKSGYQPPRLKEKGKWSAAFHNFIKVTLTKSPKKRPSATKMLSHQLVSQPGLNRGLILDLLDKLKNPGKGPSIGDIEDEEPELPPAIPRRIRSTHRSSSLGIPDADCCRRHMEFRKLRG
Method in brief: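 Human GST-HPK1(1-346), 3 ng, reacted with 3 uM ATP and specific substrate in 40 mM Tris-HCl pH 7.4, 20 mM MgCl2, 0.5 mg/mL BSA, 50 uM DTT for 2 h at 25° C. ADP-Glo luminescence read; IC50 (nM) relative to untreated solvent control.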

RS4;11 cells = experiment: AML cell proliferation inhibitory activity (CellTiter-Glo); assay type: cell-based; conditions: Homo sapiens, 72 hours
Method in brief: as §1

SMILES	GI50 (MV4-11 cells) [nM]	IC50 (CDK6 cyclin D1) [nM]	IC50 (human FLT3-ITD enzyme) [nM]	IC50 (CDK4-cyclinD1) [nM]	GI50 (MCF-7 cells) [nM]	IC50 (human GST-HPK1 (1-346)) [nM]	GI50 (RS4;11 cells) [nM]
CN1CCN(c2ccc(Nc3nc(N4OCC[C@H]4c4ccccc4)c4c(Cl)c[nH]c4n3)cc2)CC1 [Example 116, (S)-5-chloro-N-(4-(4-methylpiperazin-1-yl)phenyl)-4-(3-phenylisoxazolidin-2-yl)-7H-pyrrolo[2,3-d]pyrimidin-2-amine]	> 500	≥ 250	≥ 250	≥ 250	> 500	≥ 250	–
CN1CCN(c2ccc(Nc3nc(N4OCC[C@H]4c4ccccc4)c4c(C#N)c[nH]c4n3)cc2)CC1 [Example 118, (S)-2-((4-(4-methylpiperazin-1-yl)phenyl)amino)-4-(3-phenylisoxazolidin-2-yl)-7H-pyrrolo[2,3-d]pyrimidine-5-carbonitrile]	> 500	≥ 250	≥ 250	≥ 250	> 500	≥ 250	–
CCN(CC)CCCOc1ccc(Nc2nc(N3N=CCC3c3ccccc3)c3sccc3n2)cc1 (stereo not drawn) [Example 47, N-(4-(3-(diethylamino)propoxy)phenyl)-4-(5-phenyl-4,5-dihydro-1H-pyrazol-1-yl)thieno[3,2-d]pyrimidin-2-amine]	≥ 250	–	250 to 500	–	> 500	> 500	> 500
CN1CCN(c2ccc(Nc3nc(N4N=CCC4c4cccnc4)c4sccc4n3)cc2)CC1 (stereo not drawn) [Example 34, N-(4-(4-methylpiperazin-1-yl)phenyl)-4-(5-(pyridin-3-yl)-4,5-dihydro-1H-pyrazol-1-yl)thieno[3,2-d]pyrimidin-2-amine]	> 500	–	> 500	–	> 500	> 500	> 500
CCN1CCN(C2CCN(c3ccc(Nc4nc(N5N=CCC5c5ccccc5)c5sccc5n4)cc3)CC2)CC1 (stereo not drawn) [Example 37, N-(4-(4-(4-ethylpiperazin-1-yl)piperidin-1-yl)phenyl)-4-(5-phenyl-4,5-dihydro-1H-pyrazol-1-yl)thieno[3,2-d]pyrimidin-2-amine]	≥ 250	–	250 to 500	–	> 500	> 500	> 500
CN1CCN(c2ccc(Nc3nc(N4N=CCC4C4CCCCC4)c4sccc4n3)cc2)CC1 (stereo not drawn) [Example 30, 4-(5-cyclohexyl-4,5-dihydro-1H-pyrazol-1-yl)-N-(4-(4-methylpiperazin-1-yl)phenyl)thieno[3,2-d]pyrimidin-2-amine]	250 to 500	–	> 500	–	> 500	> 500	≥ 250
CCN(CC)CCOc1ccc(Nc2nc(N3N=CCC3c3ccccc3)c3sccc3n2)cc1 (stereo not drawn) [Example 45, N-(4-(2-(diethylamino)ethoxy)phenyl)-4-(5-phenyl-4,5-dihydro-1H-pyrazol-1-yl)thieno[3,2-d]pyrimidin-2-amine]	250 to 500	–	250 to 500	–	> 500	> 500	> 500
CCN(CC)CCCOc1c(C)cc(Nc2nc(N3N=CCC3c3ccccc3)c3sccc3n2)cc1C (stereo not drawn) [Example 48, N-(4-(3-(diethylamino)propoxy)-3,5-dimethylphenyl)-4-(5-phenyl-4,5-dihydro-1H-pyrazol-1-yl)thieno[3,2-d]pyrimidin-2-amine]	> 500	–	> 500	–	> 500	> 500	> 500
CN1CCN(c2ccc(Nc3nc(N4OCC[C@H]4c4ccccc4)c4c(C(F)(F)F)c[nH]c4n3)cc2)CC1 [Example 123, (S)-N-(4-(4-methylpiperazin-1-yl)phenyl)-4-(3-phenylisoxazolidin-2-yl)-5-(trifluoromethyl)-7H-pyrrolo[2,3-d]pyrimidin-2-amine]	> 500	≥ 250	≥ 250	≥ 250	> 500	> 500	–
